Measured values taken from patent US10239844B2, “Disubstituted triazole analogs” (BioVentures, LLC, priority 2014, dated 2019).

Experiments:
Assay type in all cases: cell-based, human
RPMI-8226 = test: NCI 60 panel five-dose growth inhibition, Leukemia; details: RPMI-8226, Leukemia
SF-268 = test: NCI 60 panel five-dose growth inhibition, CNS Cancer; details: SF-268, CNS Cancer
786-0 = test: NCI 60 panel five-dose growth inhibition, Renal Cancer; details: 786-0, Renal Cancer
HT29 = test: NCI 60 panel five-dose growth inhibition, Colon Cancer
MDA-MB-231/ATCC = test: NCI 60 panel five-dose growth inhibition, Breast Cancer
SNB-19 = test: NCI 60 panel five-dose growth inhibition, CNS Cancer; details: SNB-19, CNS Cancer
K-562 = test: NCI 60 panel five-dose growth inhibition, Leukemia; details: K-562, Leukemia
HCT-116 = test: NCI 60 panel five-dose growth inhibition, Colon Cancer; details: HCT-116, Colon Cancer
IGROV1 = test: NCI 60 panel five-dose growth inhibition, Ovarian Cancer
SW-620 = test: NCI 60 panel five-dose growth inhibition, Colon Cancer; details: SW-620, Colon Cancer
1-ICT-15 = test: as above; details: 1-ICT-15, Colon Cancer
MCF7 = test: NCI 60 panel five-dose growth inhibition, Breast Cancer
NCI-H460 = test: NCI 60 panel five-dose growth inhibition, Non-Small Cell Lung Cancer
M14 = test: NCI 60 panel five-dose growth inhibition, Melanoma
COLO 205 = test: NCI 60 panel five-dose growth inhibition, Colon Cancer; details: COLO 205, Colon Cancer
SK-MEL-28 = test: NCI 60 panel five-dose growth inhibition, Melanoma; details: SK-MEL-28, Melanoma
5K-MEL-5 = test: NCI 60 panel five-dose growth inhibition, Melanoma; details: 5K-MEL-5, Melanoma
HL-60(T13) = test: NCI 60 panel five-dose growth inhibition, Leukemia; details: Homo sapiens
CCRF-CEM = test: NCI 60 panel five-dose growth inhibition, Leukemia
HOP-62 = test: NCI 60 panel five-dose growth inhibition, Non-Small Cell Lung Cancer; details: HOP-62, Non-Small Cell Lung Cancer
MDA-MB-435 = test: NCI 60 panel five-dose growth inhibition, Melanoma; details: Homo sapiens; MDA-MB-435, Melanoma
CAKI-1 = test: NCI 60 panel five-dose growth inhibition, Renal Cancer; details: CAKI-1, Renal Cancer
U0-31 = test: as above; details: U0-31, Renal Cancer
OVCAR-4 = test: NCI 60 panel five-dose growth inhibition, Ovarian Cancer; details: OVCAR-4, Ovarian Cancer
KM12 = test: NCI 60 panel five-dose growth inhibition, Colon Cancer
MOLT-4 = test: NCI 60 panel five-dose growth inhibition, Leukemia; details: MOLT-4, Leukemia
A549/ATCC = test: NCI 60 panel five-dose growth inhibition, Non-Small Cell Lung Cancer
NCI/ADR-RES = test: NCI 60 panel five-dose growth inhibition, Ovarian Cancer
HS 5781 = test: NCI 60 panel five-dose growth inhibition, Breast Cancer; details: HS 5781, Breast Cancer
PC-3 = test: NCI 60 panel five-dose growth inhibition, Prostate Cancer; details: PC-3, Prostate Cancer
OVCA R-3 = test: NCI 60 panel five-dose growth inhibition, Ovarian Cancer; details: OVCA R-3, Ovarian Cancer
ACHN = test: NCI 60 panel five-dose growth inhibition, Renal Cancer
LOX IMVI = test: NCI 60 panel five-dose growth inhibition, Melanoma
UACC-62 = test: NCI 60 panel five-dose growth inhibition, Melanoma
SK-MEL-2 = test: NCI 60 panel five-dose growth inhibition, Melanoma; details: SK-MEL-2, Melanoma
NCI-H23 = test: NCI 60 panel five-dose growth inhibition, Non-Small Cell Lung Cancer
HCC-2998 = test: NCI 60 panel five-dose growth inhibition, Colon Cancer; details: HCC-2998, Colon Cancer

## COc1cc(-c2n[nH]nc2-c2ccc3c(c2)OCCO3)cc(OC)c1OC [Example 7, 4-(2,3-dihydrobenzo[b][1,4]dioxin-6-yl)-5-(3,4,5-trimethoxyphenyl)-2H-1,2,3-triazole]
RPMI-8226; Homo sapiens
  GI50: 326 nM
RPMI-8226
  TGI: 22100 nM
SF-268; Homo sapiens
  GI50: > 1000 nM
SF-268
  TGI: >100000 nM
786-0
  TGI: 63500 nM
786-0; Homo sapiens
  GI50: 618 nM
HT29
  TGI: 12500 nM
HT29; Homo sapiens, HT-29
  GI50: 392 nM
MDA-MB-231/ATCC
  TGI: 31500 nM
MDA-MB-231/ATCC; Homo sapiens
  GI50: 529 nM
SNB-19; Homo sapiens
  GI50: 501 nM
SNB-19
  TGI: >100000 nM
K-562; Homo sapiens, K562
  GI50: 49.6 nM
K-562
  TGI: >100000 nM
HCT-116
  TGI: 15600 nM
HCT-116; Homo sapiens
  GI50: 181 nM
IGROV1
  TGI: >100000 nM
IGROV1; Homo sapiens, IGROV-1
  GI50: > 1000 nM
SW-620; Homo sapiens
  GI50: 105 nM
SW-620
  TGI: >100000 nM
1-ICT-15
  TGI: >100000 nM
1-ICT-15; Homo sapiens
  GI50: 125 nM
MCF7
  TGI: >100000 nM
MCF7; Homo sapiens
  GI50: 76.8 nM
NCI-H460
  TGI: 28700 nM
NCI-H460; Homo sapiens
  GI50: 335 nM
M14
  TGI: 12000 nM
COLO 205
  TGI: 1300 nM
COLO 205; Homo sapiens
  GI50: 311 nM
SK-MEL-28; Homo sapiens
  GI50: 244 nM
SK-MEL-28
  TGI: 43500 nM
5K-MEL-5
  TGI: 11900 nM
5K-MEL-5; Homo sapiens
  GI50: > 1000 nM
HL-60(T13)
  GI50: 201 nM
CCRF-CEM
  TGI: >100000 nM
CCRF-CEM; Homo sapiens
  GI50: 282 nM
HOP-62
  TGI: >100000 nM
HOP-62; Homo sapiens
  GI50: 336 nM
MDA-MB-435
  GI50: 94.8 nM
CAKI-1
  TGI: >100000 nM
CAKI-1; Homo sapiens
  GI50: 316 nM
U0-31; Homo sapiens
  GI50: 661 nM
U0-31
  TGI: 72700 nM
OVCAR-4; Homo sapiens
  GI50: 76.3 nM
OVCAR-4
  TGI: >100000 nM
KM12
  TGI: 11900 nM
KM12; Homo sapiens
  GI50: 70 nM
MOLT-4; Homo sapiens
  GI50: 572 nM
MOLT-4
  TGI: 51800 nM
A549/ATCC
  TGI: 50900 nM
A549/ATCC; Homo sapiens
  GI50: 289 nM
NCI/ADR-RES
  TGI: 24000 nM
NCI/ADR-RES; Homo sapiens
  GI50: 84.9 nM
HS 5781
  TGI: >100000 nM
HS 5781; Homo sapiens
  GI50: 442 nM
PC-3; Homo sapiens
  GI50: 255 nM
PC-3
  TGI: 43700 nM
OVCA R-3; Homo sapiens, OVCAR-3
  GI50: 432 nM
OVCA R-3
  TGI: 370 nM
ACHN
  TGI: >100000 nM
ACHN; Homo sapiens
  GI50: 705 nM
LOX IMVI
  TGI: 87100 nM
LOX IMVI; Homo sapiens
  GI50: 545 nM
UACC-62; Homo sapiens, UACC-62, UACC-62, Melanoma
  GI50: > 1000 nM
UACC-62; UACC-62, Melanoma
  TGI: 30800 nM
SK-MEL-2; Homo sapiens
  GI50: 23.6 nM
SK-MEL-2
  TGI: 55700 nM
NCI-H23
  TGI: >100000 nM
NCI-H23; Homo sapiens
  GI50: 767 nM
HCC-2998
  TGI: 24600 nM
HCC-2998; Homo sapiens
  GI50: > 1000 nM
